Laboratory results taken from paper PMC8202924, “Emodepside targets SLO-1 channels of Onchocerca ochengi and induces broad anthelmintic effects in a bovine model of onchocerciasis” (PLoS Pathogens, 2021).

What was measured:
[1] = system: Onchocerca ochengi adult male worms; assay: Ex vivo visual motility assessment of adult male worms from nodules; format: in vivo; settings: MRSM, 4 mg/kg every other day for 3 days; day 550; n = 1
Description: (§1) Tattooed nodules were removed under local anesthesia (lidocaine-epinephrine) on study days -1, 90, 180–190, 270–290, 360 and 550 in a randomized order as previously described. Nodules were trimmed of excess tissue and up to four nodules per animal were processed separately as follows: (1) stored frozen at –80°C for PK analysis (up to day 14 only); (2) injected in toto with 10% neutral-buffered formalin and stored at 4°C for histopathology (up to day 290 only); or (3) dissected immediately in phosphate-buffered saline to separate adult male and female worms. The anterior end of the female worm (which even in viable specimens is the only motile part of the parasite) was removed from the worm mass and incubated alongside intact male worms for 30 min at 37°C for visual motility assessment on a three-point scale. The remaining portion of the female worm mass was subjectively scored for fecundity on a four-point scale (0, uteri empty or worm structure degraded; 1, low; 2, intermediate; 3, normal) by examining the uterine contents microscopically in situ. This was followed by a fully quantitative embryogram to enumerate oocytes, embryonic stages and intrauterine Mf as described previously.
The second class of PD endpoint considered was worm motility, which was recorded as a three-class categorical variable and quantified here as a fraction of normal worm motility. […]

[2] = system: Onchocerca ochengi adult worms in nodules; assay: Histopathology of nodules, worm integrity scores after Striebel; format: in vivo; set-up: key to Cumulative histopathological score, representative section: sum of 5 organ grades: 5 = healthy, 15 = max damage, 16 = debris/none; settings: MRSM
Description: Nodules for histopathology (n = 72) were collected up to day 290, after which few were available in the melarsomine (MRSM) group. For consistency, nodules were taken from the same three animals in each experimental group at each timepoint. Formalin-fixed nodules were embedded in paraffin, sectioned, and stained with hematoxylin and eosin or Giemsa as previously described or with Lendrum’s carbol chromotrope to specifically stain eosinophils.
Histological sections of nodules were scored by a single observer blinded to treatment group using the form proposed by Striebel, which was developed based on observations of O. volvulus (human) and Onchocerca gibsoni (bovine) nodules. In the current study, O. ochengi nodules were graded by applying a similar system in which the integrity of five structures or organs (cuticle, hypodermis, longitudinal muscle, pseudocoelomic cavity and gut) were classified through microscopical assessment of specific anatomical features (e.g., vacuoles in the hypodermis or host cells visible in the pseudocoelomic cavity) according to the categories in Table A in S1 Text. These grades were used to assign a pathology score for each aspect of parasite anatomy examined. Scores for all five structures or organs were then added together to produce a cumulative overall score, with a minimum score of 5 for parasite sections judged to be healthy across all five structures or organs. Since parasite sections showing extensive damage across all five anatomical regions could score a maximum of 15, sections containing cuticular debris only, or where parasites were unidentifiable in the section, were allocated a total score of 16. Where sections of male worms were present in the nodule these were scored separately to the females. Some sections contained more than one conjoined nodule. In these cases, females were also scored and recorded individually.
The effect of different treatments relative to either (a) no treatment controls or (b) pre-treatment observations of parasite integrity was analyzed using linear mixed effects models with the nonlinear mixed effects model package in R [63, 64]. Overall scores for parasite integrity were modelled as the response variable compared with (a) treatment groups for each timepoint and (b) different timepoints for each respective treatment group. In both cases, animal identity was modelled as a random effect to account for repeat observations taken from the same individual, and results were adjusted using a post-hoc Bonferroni correction for multiple comparisons. Similarly, to assess the effect of different treatments on cellular infiltrates over time, total PMN or eosinophil counts per high-power field and eosinophils as a percentage of the total PMN population were each modelled as […] variables compared with (a) treatment groups for each timepoint and (b) different timepoints for each respective treatment group.

[3] = system: Onchocerca ochengi adult female worms; assay: MTT assay for metabolic activity of worms from nodules; format: in vivo; settings: MRSM, 4 mg/kg every other day for 3 days; day 550
Description: (§2) Worms from a second unfixed nodule (at the same timepoints listed above) were subjected to a 3-(4,5-dimethylthiazol-2-yl)-2,5-diphenyltetrazolium bromide (MTT) assay for metabolic activity, in which the insoluble formazan product was dissolved in DMSO and quantified colorimetrically at 620 nm in a microplate reader (model LT4500, Labtech, Heathfield, East Sussex, UK). Finally, dermal microfilarial densities were determined by incubation of skin biopsies (in triplicate per animal per timepoint) and normalized to 100 mg skin [59].

[4] = system: Onchocerca ochengi microfilariae; assay: Dermal microfilarial density in naturally infected cattle; format: in vivo; settings: MRSM, 4 mg/kg every other day for 3 days
Description: By group, the geometric mean Mf load per 100 mg skin ranged from 100 to 500 (Table 1); two animals found to be negative for skin Mf were distributed in different groups. Eighteen preselected nodules per animal were marked with tattoo ink, and their positions were recorded on a hardcopy ‘hide map’ and by digital video [57]. All assessments of drug efficacy were conducted by individuals blinded to the treatment groups. The study was conducted unmasked. All study personnel provided a signed declaration to conduct the study according to the specified protocol. Verum or vehicle was administered as described in the dose confirmation study.
as §2

[5] = system: Onchocerca ochengi adult female worms; assay: Embryogram (uterine contents of female worms from nodules); format: in vivo; settings: MRSM, 4 mg/kg every other day for 3 days; P = 0.005
Description: as §1
The same principle was applied to the analysis of the uterine contents. […] Over all doses and individual animals, an effect size (m) and corresponding statistics were calculated using R’s lm function.

[6] = rat, over four weeks orally in diet; cited from earlier work
Description: Blood glucose has been identified as a simple biomarker for emodepside exposure in humans.

[7] = 4 mg/kg every other day for 3 days, day 90
[8] = 4 mg/kg every other day for 3 days, day 180
[9] = 4 mg/kg every other day for 3 days, day 290

NCCS[As](SCCN)c1ccc(Nc2nc(N)nc(N)n2)cc1 [melarsomine]
Fraction of normal adult male worm motility [1]: 0% | Cumulative pathology scores of worm sections ([2]; 4 mg/kg every other day for 3 days, all post-treatment timepoints, P <0.05): significantly higher pathology scores than PCBO | Cumulative histopathological worm score, mixed-effects coefficient (SE) vs placebo [2, 7]: 8.00 (2.01) | Cumulative histopathological worm score, mixed-effects coefficient (SE) vs pre-treatment (day 1) [2, 7]: 9.45 (1.81) | Degenerate nodules (no parasite sections or only cuticular fragments), of three nodules [2, 7]: 1 | Mean histopathological score, cuticle [2, 7]: 3.00 | Mean histopathological score, gut [2, 7]: 3.33 | Mean histopathological score, hypodermis [2, 7]: 3.33 | Mean histopathological score, longitudinal muscle [2, 7]: 2.67 | Mean histopathological score, pseudocoleomic cavity [2, 7]: 3.33 | Cumulative histopathological worm score, mixed-effects coefficient (SE) vs placebo [2, 8]: 7.31 (2.41) | Cumulative histopathological worm score, mixed-effects coefficient (SE) vs pre-treatment (day 1) [2, 8]: 8.12 (1.81) | Degenerate nodules (no parasite sections or only cuticular fragments), of three nodules [2, 8]: 2 | Mean histopathological score, cuticle [2, 8]: 3.33 | Mean histopathological score, gut [2, 8]: 3.00 | Mean histopathological score, hypodermis [2, 8]: 3.00 | Mean histopathological score, longitudinal muscle [2, 8]: 3.00 | Mean histopathological score, pseudocoleomic cavity [2, 8]: 3.33 | Cumulative histopathological worm score, mixed-effects coefficient (SE) vs placebo [2, 9]: 8.67 (2.97) | Cumulative histopathological worm score, mixed-effects coefficient (SE) vs pre-treatment (day 1) [2, 9]: 11.11 (1.81) | Degenerate nodules (no parasite sections or only cuticular fragments), of three nodules [2, 9]: 3 | Mean histopathological score, cuticle [2, 9]: 4.00 | Mean histopathological score, gut [2, 9]: 4.00 | Mean histopathological score, hypodermis [2, 9]: 4.00 | Mean histopathological score, longitudinal muscle [2, 9]: 4.00 | Mean histopathological score, pseudocoleomic cavity [2, 9]: 4.00 | Cumulative histopathological score, representative section ([2]; day 290, animal B0435, degenerate nodule, no parasites): 16 | MTT reduction, worms recovered [3]: no intact worms were recovered | Mf density over time [4]: complete clearance after one year | AUC for all embryonic stages [5]: significantly reduced

CC(C)C[C@H]1C(=O)O[C@H](Cc2ccc(N3CCOCC3)cc2)C(=O)N(C)[C@@H](CC(C)C)C(=O)O[C@H](C)C(=O)N(C)[C@@H](CC(C)C)C(=O)O[C@H](Cc2ccc(N3CCOCC3)cc2)C(=O)N(C)[C@@H](CC(C)C)C(=O)O[C@H](C)C(=O)N1C [emodepside]
no-observed-adverse-effect level [6]: 4 to 5 mg/kg
